# According to US5763435A, “Sulfate conjugates of ursodeoxycholic acid, and their beneficial use in inflammatory disorders” (priority 1995, dated 1998):
# Where “and” joins values, the source holds several entries; their conditions need not be identical. Equal entries are not always repeated.
# Columns and labels:
# bile-flow = test: Bile-flow and bile acid secretion during i.v. infusion; format: in vivo, Sprague-Dawley rats
# Experimental: Adult male Sprague-Dawley rats (body weight 200-230 g) were anesthetized by an intraperitoneal injection of pentobarbital (Nembutal, 7.5 mg/100 g body weight), and maintained under sedation by additional doses. The right jugular vein and the common bile duct were cannulated using PE-50 polyethylene tubing (Clay-Adams, Parsippany, N.J.). Body temperature was maintained throughout the experiment at 37° C. using a rectal probe and a thermostatically controlled heating pad (Harvard Apparatus Co., Inc., Millis, Mass.). Saline was infused at a rate of 1.0 ml/h using a Harvard pump (Harvard Apparatus Co., Inc.) into the jugular vein for a control period of 2h. After collecting two 10 minute bile samples for base-line analysis, the bile acids were individually infused intravenously (i.v.) for 30 minutes in stepwise increasing doses (0.5, 1.0, and 2.0 μmol/min/100 g body weight). Bile acid solutions were prepared in 3% human albumin in 0.45% saline. Six animals were used for each experiment and bile was collected every 10 minutes into preweighed tubes. At the end of the experiment, blood was obtained by cardiac puncture, and urine was obtained by aspiration of the bladder. All biological specimens were stored at -20° C. This animal study protocol (#1 B 10044) was approved by the Bioethics committee of the Children's Hospital Medical Center (Cincinnati, Ohio).
# Bile volume was determined gravimetrically assuming a density of 1 g/ml. Total 3α-hydroxy bile acid concentration in the bile was measured enzymatically before solvolysis (nonsulfated bile acids) and after solvolysis (total bile acids) (Mashige, F., et al., Direct spectrometry of total bile acids in serum. Clin. Chem. 27: 1352-1356 (1981)). The bile acid output was calculated by multiplying the rate of bile-flow by the bile acid concentration. Biliary phospholipids were determined by an enzymatic procedure based on the choline oxidase method (Nippon Shoji Kaisha, Ltd., Osaka, Japan) (Grantz, D., et al., Enzymatic measurement of choline-containing phospholipids in bile. J. Lipid Res. 22: 273-276 (1981)). Cholesterol was also measured enzymatically (Boehringer Mannehim, Indianapolis, Ind.) (Fromm, H., et al., Use of a simple enzymatic assay for cholesterol analysis in human bile. J. Lipid Res. 21: 259-261 (1980)).
# Results were expressed as mean±standard error of mean (SEM). Bile-flow and biliary lipid output were expressed as μl /min/g liver and nmol/min/g liver, respectively. Statistical analysis was made using INSTAT program (Graphpad Software Inc., San Diego, Calif.). Parametric data among groups were analyzed using Student's t-test. The statistical comparisons between the different groups were made by one-way analysis of variance (ANOVA). […] Linear regression analysis was performed. The choleretic activity of each bile acid was determined from the slope of regression line of the correlation between the bile acid secretion rate and bile-flow and was expressed as […]. Comparisons between slopes were made by one-way ANOVA.
# [1] = system: Principal Bile Acids in Liver; test: Bile acid composition of liver tissue after oral administration (GC-MS); format: in vivo, Sprague-Dawley rats
# Experimental: Male Sprague-Dawley rats (Harlan Sprague-Dawley, Inc., Indianapolis, Ind.), weighing 210-290 g, were maintained on a 12-hour light-dark cycle and fed standard laboratory chow ad libitum for 3 days. The animals were then transferred to metabolic cages in which they were housed individually and fed the same diet. UDCA, UDCA 3-sulfate, UDCA 7-sulfate, and UDCA 3,7-disulfate were administered by gavage at a dose of 250 mg/day for 4 consecutive days. Each group comprised 3-6 rats. Body weights of the animals were measured each day. On day 5, the animals were killed by exsanguination under ether anesthesia. Plasma was collected and frozen at -20° C. The liver was removed, rinsed in normal saline, and flash-frozen in liquid nitrogen. Urine and feces were collected every 24 hours and frozen at -20° C. All animals received humane care in compliance with the "Guide for the Care and Use of Laboratory Animals" prepared by the National Academy of Sciences (National Institutes of Health publication no. 86-23, revised in 1985).
# Samples of liver (100 mg) were ground to a fine paste, and bile acids were extracted by reflux and passage through a column of Lipidex 1000 as described above for intestinal contents and feces. Group separation of bile acids, according to their mode of conjugation was achieved by lipophilic anion-exchange chromatography. Extracts from each animal were pooled, and bile acids and their conjugates were separated using Lipidex-DEAP and stepwise elution of the gel bed with the following buffers: 0.1 mol/L acetic acid in 72% ethanol (unconjugated bile acids); 0.3 mol/L acetic acid in 72% ethanol, pH 5.0 (glycine conjugates); 0.15 mol/L acetic acid in 72% ethanol, pH 6.5 (taurine conjugates); and 0.3 mol/L acetic acid in 72% ethanol, pH 9.6 (sulfate conjugates). After evaporation of the buffers, sulfated bile acids were solvolyzed, whereas amidated conjugates were hydrolyzed with 50 U of cholylglycine hydrolase (Sigma Chemical Co.) in 2.5 mL of 0.2 mol/L phosphate buffer, pH 5.6, at 37° C. overnight. The resulting unconjugated bile acids were isolated on Lipidex-DEAP, and the methyl ester-trimethylsilyl ether derivatives were prepared as described above.
# GC-MS analysis was performed using a Finnigan 4635 mass spectrometer (Finnigan Inc., San Jose, Calif.) that housed an identical gas chromatography column operated under the same conditions. Electron ionization (70 eV) mass spectra were recorded over the mass range of 50-800 daltons by repetitive scanning of the eluting components. Identification of bile acids was made on the basis of the gas chromatography retention index relative to a homologous series of n-alkanes, referred to as the methylene unit value, and the mass spectrum compared with authentic standards. Quantification of bile acids was achieved using gas chromatography by comparing the peak height response of the individual bile acids with the peak height response obtained from the internal standard.
# Data are expressed as mean±SEM or as mean values of all animals when extracts were pooled before analysis. Results from different groups were compared using paired and unpaired two-tailed Student's t-test. P values of <0.05 were considered statistically significant.
# [2] = i.v. infusion 0.5, 1.0, 2.0 μmol/min/100 g, mean ± SEM, six animals
smiles,measurement,setting,value
"C[C@H](CCC(=O)O)[C@H]1CC[C@H]2[C@@H]3[C@@H](O)C[C@@H]4C[C@H](OS(=O)(=O)O)CC[C@]4(C)[C@H]3CC[C@]12C [UDCA-3S, ursodeoxycholic acid 3-sulfate]",Choleretic effect / order of maximum bile-flow (in words),bile-flow; i.v. infusion,less effective in stimulating bile-flow than unconjugated UDCA
same,"Bile flow, maximum",bile-flow; [2],3.34 ± 0.13 μl/min/g liver
same,"Bile salt output (biliary bile acid secretion rate), maximum",bile-flow; [2],138.90 ± 11.80 nmol/min/g liver and 138.9±11.8 nmol/min/g liver
same,Apparent choleretic activity (slope of regression line),"bile-flow; i.v. infusion, bile acid secretion rate vs bile-flow",13 ± 1 µL/µmol
same,Chenodeoxycholic acid concentration in liver,"[1]; oral gavage 250 mg/day, 4 days",9.2 nmol/g
same,Chenodeoxycholic acid percent of hepatic bile acids,"[1]; oral gavage 250 mg/day, 4 days",2.5%
same,Cholic acid concentration in liver,"[1]; oral gavage 250 mg/day, 4 days",86.6 nmol/g
same,Cholic acid percent of hepatic bile acids,"[1]; oral gavage 250 mg/day, 4 days",23.9%
same,Deoxycholic acid concentration in liver,"[1]; oral gavage 250 mg/day, 4 days",52.6 nmol/g
same,Deoxycholic acid percent of hepatic bile acids,"[1]; oral gavage 250 mg/day, 4 days",14.5%
same,Lithocholic acid concentration in liver,"[1]; oral gavage 250 mg/day, 4 days",3.2 nmol/g
same,Lithocholic acid percent of hepatic bile acids,"[1]; oral gavage 250 mg/day, 4 days",0.9%
same,Total bile acid concentration in liver,"[1]; oral gavage 250 mg/day, 4 days",361.7 nmol/g
same,UDCA percent of hepatic bile acids,"[1]; oral gavage 250 mg/day, 4 days",15.6%
same,Δ^22-UDCA concentration in liver,"[1]; oral gavage 250 mg/day, 4 days",31.3 nmol/g
same,Δ^22-UDCA percent of hepatic bile acids,"[1]; oral gavage 250 mg/day, 4 days",8.6%
same,Δ^22-β-Muricholic acid concentration in liver,"[1]; oral gavage 250 mg/day, 4 days",36.3 nmol/g
same,Δ^22-β-Muricholic acid percent of hepatic bile acids,"[1]; oral gavage 250 mg/day, 4 days",10.0%
same,Δ^22-ω-Muricholic acid concentration in liver,"[1]; oral gavage 250 mg/day, 4 days",6.3 nmol/g
same,Δ^22-ω-Muricholic acid percent of hepatic bile acids,"[1]; oral gavage 250 mg/day, 4 days",1.7%
same,α-Muricholic acid concentration in liver,"[1]; oral gavage 250 mg/day, 4 days",6.0 nmol/g
same,α-Muricholic acid percent of hepatic bile acids,"[1]; oral gavage 250 mg/day, 4 days",1.6%
same,β-Muricholic acid concentration in liver,"[1]; oral gavage 250 mg/day, 4 days",65.4 nmol/g
same,β-Muricholic acid percent of hepatic bile acids,"[1]; oral gavage 250 mg/day, 4 days",18.1%
same,ω-Muricholic acid concentration in liver,"[1]; oral gavage 250 mg/day, 4 days",8.1 nmol/g
same,ω-Muricholic acid percent of hepatic bile acids,"[1]; oral gavage 250 mg/day, 4 days",2.2%
same,Hepatic UDCA concentration change (in words),"[1]; oral, vs control",increased concentrations and proportions of liver tissue UDCA
same,Conjugation of UDCA in liver tissue,"[1]; oral, listed as C-3 sulfate","biotransformed by conjugation, mainly with taurine"
same,Conjugation of UDCA in liver tissue,"[1]; oral, listed as UDCA 3-sulfate",significant desulfation and amidation
